We go through three compounds from ChEMBL document CHEMBL5352484, “Discovery of a potent and long-acting Xenopus GLP-1-based GLP-1/glucagon/Y2 receptor triple agonist” (Eur J Med Chem, 2023).

Molecules are shown by their SMILES. The source made the active and inactive calls. The rule behind the calls is not given here.

Assay [1] addresses Glucagon receptor (Homo sapiens, UniProt P47871). Nature of the assay: Agonist activity at GCGR (unknown origin) expressed in HEK293 cells assessed as cAMP accumulation incubated for 30 mins by HTRF method. It counts as functional, cell-based. Background: Cyclic AMP is a second messenger, typically raised through Gs and lowered through Gi signalling.
For assay [2], the target named is Glucagon-like peptide 1 receptor (Homo sapiens, UniProt P43220). Nature of the assay: Agonist activity at GLP-1R (unknown origin) expressed in HEK293 cells assessed as cAMP accumulation incubated for 30 mins by HTRF method. Format: functional, cell-based.
Glucagon-like peptide 1 receptor, sequence (P43220 whole entry): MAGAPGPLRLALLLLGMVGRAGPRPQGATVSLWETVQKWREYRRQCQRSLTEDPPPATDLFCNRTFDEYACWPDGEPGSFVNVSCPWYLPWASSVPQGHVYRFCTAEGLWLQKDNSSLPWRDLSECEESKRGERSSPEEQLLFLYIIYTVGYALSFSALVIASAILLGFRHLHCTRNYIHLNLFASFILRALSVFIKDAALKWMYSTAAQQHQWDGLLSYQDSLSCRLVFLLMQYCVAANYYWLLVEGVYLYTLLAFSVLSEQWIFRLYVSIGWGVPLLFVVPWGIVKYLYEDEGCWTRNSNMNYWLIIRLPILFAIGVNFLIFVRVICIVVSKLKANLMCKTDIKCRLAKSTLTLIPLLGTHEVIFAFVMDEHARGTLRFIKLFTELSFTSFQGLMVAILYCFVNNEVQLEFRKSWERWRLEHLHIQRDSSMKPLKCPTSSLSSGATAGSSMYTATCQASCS
Assay [3] relates to Mus musculus. Put plainly: Reduction in liver TG level in C57BL/6J mouse at 30 nmol/kg, sc administered for 21 days. Particulars: time 21.0 day. Format: functional, organism-based.
Assay [4] relates to Mus musculus. Put plainly: Antiobesity activity in ICR mouse assessed as reduction in food intake at […], sc measured upto 24 hrs in presence of Lys7(C16-gammaGlu)PYY3-36. It counts as functional. On the set-up: scale not given: the % may be the effect or the level left.
Assay [5] concerns Mus musculus. Nature of the assay: Anti-obesity activity in C57BL/6J mouse model of high-fat diet induced obesity assessed as decrease in body weight at 30 nmol/kg, sc administered twice daily for 7 days. Format: functional. On the set-up: scale not given: the % may be the effect or the level left. Particulars: time 7 day.
Assay [6] deals with Mus musculus. Nature of the assay: Anorexigenic effect in ICR mouse assessed as inhibition of food intake at 30 nmol/kg, ip pretreated with Jant-4 for 30 mins followed by compound addition for 30 mins. It counts as functional, organism-based.
Assay [7] deals with Mus musculus. Nature of the assay: Antiobesity activity in ICR mouse assessed as reduction in food intake at […], sc measured upto 24 hrs. It counts as functional. On the set-up: scale not given: the % may be the effect or the level left.
For assay [8], the system named is Mus musculus. Nature of the assay: Hypoglycemic activity in ICR mouse at 30 nmol/kg, ip pretreated with Jant-4 for 30 mins prior to compound addition for 30 mins followed by glucose addition and measured upto 120 mins by OGTT. It counts as functional, organism-based. Particulars: time <= 150.0 min.
Assay [9] deals with Mus musculus. Nature of the assay: Hypoglycemic activity in ICR mouse assessed as decrease in blood glucose level at 30 nmol/kg, ip pretreated for 30 mins followed by glucose addition and measured upto 120 mins in presence of 60 nmol/kg Lys7(C16-gammaGlu)PYY3-36 by OGTT. Particulars: time <= 150.0 min. It counts as functional, organism-based.
Assay [10] deals with Mus musculus. Put plainly: Hypoglycemic activity in ICR mouse at 30 nmol/kg, ip pretreated with JNJ-31020028 for 30 mins prior to compound addition for 30 mins followed by glucose addition and measured upto 120 mins by OGTT. Format: functional, organism-based. The note with it: time <= 150.0 min.
In assay [11] the test system is Mus musculus. Nature of the assay: Reduction in serum AST level in C57BL/6J mouse at 30 nmol/kg, sc administered for 21 days. Format: functional, organism-based. The note with it: time 21.0 day.
Assay [12] concerns Mus musculus. Nature of the assay: Anti-obesity activity in C57BL/6J mouse model of high-fat diet induced obesity assessed as decrease in body weight at 30 nmol/kg, sc administered twice daily for 7 days in presence of 60 nmol/kg Lys7(C16-gammaGlu)PYY3-36. Format: functional. On the set-up: scale not given: the % may be the effect or the level left. Particulars: time 7 day.
Assay [13] concerns Mus musculus. Put plainly: Antiobesity activity in C57BL/6J mouse assessed as reduction in body weight at 10 nmol/kg, sc after 21 days. Particulars: time 21 day. It counts as functional. On the set-up: scale not given: the % may be the effect or the level left.
The subject of assay [14] is Mus musculus. Nature of the assay: Hypoglycemic activity in ICR mouse assessed as decrease in blood glucose level at 30 nmol/kg, ip pretreated for 30 mins followed by glucose addition and measured upto 120 mins by OGTT. Format: functional, organism-based. Particulars: time <= 150.0 min.
The subject of assay [15] is Mus musculus. Put plainly: Reduction in saccharin consumption in ip dosed ICR mouse assessed as reduction in saccharin preference ratio pretreated for 40 mins with saccharin followed by compound addition. It counts as functional, organism-based.
Assay [16] has as its system Mus musculus. Nature of the assay: Reduction in liver TC level in C57BL/6J mouse at 30 nmol/kg, sc administered for 21 days. It counts as functional, organism-based. Particulars: time 21.0 day.
Assay [17] deals with Mus musculus. Put plainly: Hypoglycemic activity in ICR mouse assessed as reduction in glucose excursion at 30 nmol/kg, ip measured upto 120 mins. It counts as functional, organism-based.
For assay [18], the system named is Mus musculus. Put plainly: Antiobesity activity in ICR mouse assessed as reduction in body weight at 30 nmol/kg, sc administered twice daily. It counts as functional. On the set-up: scale not given: the % may be the effect or the level left.
Assay [19] deals with Mus musculus. Nature of the assay: Reduction in serum ALT level in C57BL/6J mouse at 30 nmol/kg, sc administered for 21 days. It counts as functional, organism-based. The note with it: time 21.0 day.
In assay [20] the test system is Mus musculus. Put plainly: Anti-obesity activity in C57BL/6J mouse model of high-fat diet induced obesity assessed as decrease in food intake at 30 nmol/kg, sc administered twice daily for 7 days in presence of 60 nmol/kg Lys7(C16-gammaGlu)PYY3-36. The note with it: time 7.0 day. It counts as functional, organism-based.
Assay [21] concerns Mus musculus. Put plainly: Anti-diabetic activity in C57BL/6J mouse model of high-fat diet induced obesity assessed as improved in glucose tolerance at 30 nmol/kg, sc administered twice daily for 7 days in presence of 60 nmol/kg Lys7(C16-gammaGlu)PYY3-36. It counts as functional, organism-based. Particulars: time 7.0 day.

Glucagon receptor, sequence (P47871 whole entry): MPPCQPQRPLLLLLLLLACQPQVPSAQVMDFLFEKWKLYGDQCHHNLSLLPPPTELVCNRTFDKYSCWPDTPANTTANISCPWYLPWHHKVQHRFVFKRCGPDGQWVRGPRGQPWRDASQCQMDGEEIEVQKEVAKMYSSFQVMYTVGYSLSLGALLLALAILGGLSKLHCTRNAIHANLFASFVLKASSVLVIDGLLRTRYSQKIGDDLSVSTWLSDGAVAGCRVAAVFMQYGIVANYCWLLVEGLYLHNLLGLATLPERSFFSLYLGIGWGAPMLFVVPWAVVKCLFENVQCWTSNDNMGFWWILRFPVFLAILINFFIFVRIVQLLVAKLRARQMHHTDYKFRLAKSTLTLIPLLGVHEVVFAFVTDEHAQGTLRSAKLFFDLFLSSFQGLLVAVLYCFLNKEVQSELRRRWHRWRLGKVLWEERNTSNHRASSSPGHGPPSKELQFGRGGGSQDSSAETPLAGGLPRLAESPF

As usually defined, the EC50 is the concentration that produces a half-maximal response. As for `CC[C@H](C)[C@H](NC(=O)[C@H](Cc1ccccc1)NC(=O)[C@H](CC(=O)O)NC(=O)[C@H](CCC(N)=O)NC(=O)[C@H](C)NC(=O)[C@H](CCCNC(=N)N)NC(=O)[C@H](CCCNC(=N)N)NC(=O)[C@H](CO)NC(=O)[C@H](CC(=O)O)NC(=O)[C@H](CCCCN)NC(=O)[C@H](Cc1ccc(O)cc1)NC(=O)[C@H](CCCCN)NC(=O)[C@H](CO)NC(=O)[C@@H](NC(=O)[C@H](CC(=O)O)NC(=O)[C@H](CC(N)=O)NC(=O)[C@@H](NC(=O)[C@H](Cc1ccc(O)cc1)NC(=O)[C@@H](NC(=O)CNC(=O)[C@H](CCC(N)=O)NC(=O)[C@@H](CO)NC(=O)[C@@H](N)Cc1c[nH]cn1)[C@@H](C)O)[C@@H](C)O)C(C)C)C(=O)N[C@@H](CCC(=O)O)C(=O)N[C@@H](Cc1c[nH]c2ccccc12)C(=O)N[C@@H](CC(C)C)C(=O)N[C@@H](CCCCN)C(=O)N[C@@H](CC(N)=O)C(=O)NCC(=O)NCC(=O)N1CCC[C@H]1C(=O)N[C@@H](CO)C(=O)N[C@@H](CO)C(=O)NCC(=O)N[C@@H](C)C(=O)N1CCC[C@H]1C(=O)N1CCC[C@H]1C(=O)N1CCC[C@H]1C(=O)N[C@@H](CO)C(=O)N[C@@H](CS)C(N)=O`, the values for the EC50 in [1] and in [2] were 0.19 nM and 0.048 nM, respectively.

With `CC[C@H](C)[C@H](NC(=O)[C@H](Cc1ccccc1)NC(=O)[C@H](CC(=O)O)NC(=O)[C@H](CCC(N)=O)NC(=O)[C@H](C)NC(=O)[C@H](CCCNC(=N)N)NC(=O)[C@H](CCCNC(=N)N)NC(=O)[C@H](CO)NC(=O)[C@H](CC(=O)O)NC(=O)[C@H](CCCCN)NC(=O)[C@H](CCC(N)=O)NC(=O)[C@H](CCCCN)NC(=O)[C@H](CO)NC(=O)[C@H](CC(C)C)NC(=O)[C@H](CC(=O)O)NC(=O)[C@H](CO)NC(=O)[C@@H](NC(=O)[C@H](Cc1ccccc1)NC(=O)[C@@H](NC(=O)CNC(=O)[C@H](CCC(N)=O)NC(=O)[C@@H](CO)NC(=O)[C@@H](N)Cc1c[nH]cn1)[C@@H](C)O)[C@@H](C)O)C(=O)N[C@@H](CCC(=O)O)C(=O)N[C@@H](Cc1c[nH]c2ccccc12)C(=O)N[C@@H](CC(C)C)C(=O)N[C@@H](CCCCN)C(=O)N[C@@H](CC(N)=O)C(=O)NCC(=O)NCC(=O)N1CCC[C@H]1C(=O)N[C@@H](CO)C(=O)N[C@@H](CO)C(=O)NCC(=O)N[C@@H](C)C(=O)N1CCC[C@H]1C(=O)N1CCC[C@H]1C(=O)N1CCC[C@H]1C(=O)N[C@@H](CO)C(=O)N[C@@H](CS)C(N)=O`, the EC50 is 0.42 nM in [1] and 0.087 nM in assay [2].

Take `CCCCCCCCCCCCCCCC(=O)N[C@@H](CCC(=O)NCCCC[C@H](NC(=O)[C@H](Cc1ccc(O)cc1)NC(=O)[C@H](CCCCN)NC(=O)[C@H](CO)NC(=O)[C@@H](NC(=O)[C@H](CC(=O)O)NC(=O)[C@H](CC(N)=O)NC(=O)[C@@H](NC(=O)[C@H](Cc1ccc(O)cc1)NC(=O)[C@@H](NC(=O)CNC(=O)[C@H](CCC(N)=O)NC(=O)[C@@H](CO)NC(=O)[C@@H](N)Cc1c[nH]cn1)[C@@H](C)O)[C@@H](C)O)C(C)C)C(=O)N[C@@H](CC(=O)O)C(=O)N[C@@H](CO)C(=O)N[C@@H](CCCNC(=N)N)C(=O)N[C@@H](CCCNC(=N)N)C(=O)N[C@@H](C)C(=O)N[C@@H](CCC(N)=O)C(=O)N[C@@H](CC(=O)O)C(=O)N[C@@H](Cc1ccccc1)C(=O)N[C@H](C(=O)N[C@@H](CCC(=O)O)C(=O)N[C@@H](Cc1c[nH]c2ccccc12)C(=O)N[C@@H](CC(C)C)C(=O)N[C@@H](CCCCN)C(=O)N[C@@H](CC(N)=O)C(=O)NCC(=O)NCC(=O)N1CCC[C@H]1C(=O)N[C@@H](CO)C(=O)N[C@@H](CO)C(=O)NCC(=O)N[C@@H](C)C(=O)N1CCC[C@H]1C(=O)N1CCC[C@H]1C(=O)N1CCC[C@H]1C(=O)N[C@@H](CO)C(N)=O)[C@@H](C)CC)C(=O)O`: the result in [3], in assay [9], in [11], in assay [14], in [16] and in assay [17] was Active. Further, the outcome in assay [19], in [20] and in assay [21] was Active. The Activity in [4] was 66%; in assay [5], 16.6%; in [7], 35%; in assay [12], 28.5%; in assay [13], 27%; in [15], “Dose-Dependent Effect”. For the same compound, the Activity in [18] is listed as 15.6%. Also, the result in [6], in assay [8] and in assay [10] was inactive.
